Test results taken from EP1169336B1, “ENT-STEROIDS AS SELECTIVELY ACTIVE ESTROGENS” (Schering Aktiengesellschaft, priority 1999, dated 2000).
Like-named read-outs stand apart in the source and are kept apart here.

Legend:
[1] = reported, source not given; cited from earlier work
[2] = Endocrinology 63, 464 (1958); cited from earlier work
hERβ [3] = type: binding, human; conditions: for ERβ/ ER: quotient of RBA to hERβ and hER
Rat uterus ER = assay: Estrogen receptor binding study, competition with 3H-estradiol, rat uterus cytosol; conditions: 3H-estradiol as ligand, estradiol = 100
Rat prost. ER = assay: Estrogen receptor binding study, competition with 3H-estradiol, rat prostate cytosol
[4] = target: human estrogen receptor α (ERα) (Homo sapiens, UniProt P03372); conditions: cited from earlier work
hERβ [5] = conditions: cited from earlier work
[6] = enantio form; J. Med. Chem. 10, 199-204 1967; cited from earlier work

human estrogen receptor α (ERα), sequence (P03372 whole entry): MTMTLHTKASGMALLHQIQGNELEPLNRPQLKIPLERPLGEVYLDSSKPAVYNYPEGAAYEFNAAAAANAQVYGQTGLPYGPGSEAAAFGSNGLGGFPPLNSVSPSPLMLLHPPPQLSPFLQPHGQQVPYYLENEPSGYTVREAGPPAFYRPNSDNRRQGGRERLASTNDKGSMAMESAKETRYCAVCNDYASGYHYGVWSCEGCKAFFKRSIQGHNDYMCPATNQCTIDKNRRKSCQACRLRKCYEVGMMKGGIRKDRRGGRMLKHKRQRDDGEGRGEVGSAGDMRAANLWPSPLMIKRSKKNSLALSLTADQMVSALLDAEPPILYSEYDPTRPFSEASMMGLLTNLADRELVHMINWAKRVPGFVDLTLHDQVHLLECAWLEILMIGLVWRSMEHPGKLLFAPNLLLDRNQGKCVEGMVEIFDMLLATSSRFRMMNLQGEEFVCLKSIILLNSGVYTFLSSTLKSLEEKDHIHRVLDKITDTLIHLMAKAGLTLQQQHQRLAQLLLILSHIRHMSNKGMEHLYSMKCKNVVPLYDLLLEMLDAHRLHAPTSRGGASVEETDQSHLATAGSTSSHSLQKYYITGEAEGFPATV

C[C@@]12CC[C@H]3c4ccc(O)cc4CC[C@H]3[C@H]1CC[C@H]2O (single isomer, unassigned) [ent-8α-estradiol]
antilipemic activity [1]: antilipemic activity in the case of no feminization

CC[C@@]12CC[C@@H]3[C@H](CCC4=CC(=O)CC[C@H]43)[C@H]1CC[C@]2(O)C#CCl (single isomer, unassigned) [ent-17α-chloroethinyl-17β-hydroxy-18a-homo-estr-4-en-3-one]
Clauberg Test [2]: ineffective

C[C@]12CC[C@H]3[C@@H](CC=C4C[C@@H](O)CC[C@@]43C)[C@@H]1CC[C@@H]2O [5-Andro-stene-diol, 5-Androstenediol]
ERβ/ ER (hERβ [3]): 3
Rat uterus ER(RBA) (Rat uterus ER): 0.1
Rat prost. ER(RBA) (Rat prost. ER; 3H-estradiol as ligand, prostate cytosol, estradiol = 100): 5
prost. ER/uterus ER (Rat prost. ER; ratio of binding to prostate and uterus receptor): 50
hER RBA* [4]: 6
hERβ RBA* (hERβ [5]): 17

C[C@]12CC[C@@H]3c4ccc(O)cc4CC[C@H]3[C@@H]1C[C@@H](O)C2=O [16α-hydroxyestrone]
binding to the human estrogen receptor β (ERβ) compared with the human estrogen receptor α (ERα) (hERβ [3]; some studies): three times better
RBA value on the rat prostate estrogen receptor compared with the RBA value on the rat uterus estrogen receptor (Rat prost. ER; some studies): five times better

C#C[C@@]1(O)CC[C@@H]2[C@H]3CCc4cc(O)ccc4[C@@H]3CC[C@]21C [17α-Ethinylestradiol]
estrogeneity, relative to estrone [6]: less than 5%

C[C@]12CC[C@@H]3c4ccc(O)cc4CC[C@H]3[C@@H]1C[C@@H](O)[C@@H]2O [Estriol]
ERβ/ ER (hERβ [3]): 1.5
hERβ RBA* (hERβ [5]; relative binding affinity, estradiol = 100): 21

O=c1c(-c2ccc(O)cc2)coc2cc(O)cc(O)c12 [Geni-steine, Genisteine]
ERβ/ ER (hERβ [3]): 7
